From patent US20160237450A1, “METHOD FOR ENHANCING DROUGHT TOLERANCE IN PLANTS” (Plant Response Biotech S.L., priority 2015, published 2016)

Key:
[1] = system: Arabidopsis thaliana plants (Col-0); assay: Drought fitness of wild type Arabidopsis sprayed with TMAO di-hydrate; assay type: in vivo; settings: Col-0 sprayed 1 g/L after first wilting cycle, scale 0 dead to 4 healthy
Procedure: Transgenic FMO3X and FMO8X genotypes and wild type Col-0 seeds of Arabidopsis thaliana were sown, grown and treated as described above. For the control group of both wild-type and transgenic plants, six week old plants were irrigated with 40 ml of water twice in the week, while “drought” treated plants of both wild-type and transgenic plants were not irrigated until all the plants were wilted.
After the first cycle of wilting wild type plants were sprayed with 1 g/L TMAO di-hydrate to determine if the wilted wild type plants could recover and perform as well as the transgenic plants in the following cycles of wilting. Fitness values were assigned using the following criteria: 0: Dead plant; 1: Critically damaged plant symptoms; 2: Moderate damaged plant symptoms; 3: Slightly damaged plant symptoms; and 4: Healthy plant.

[2] = TMAO accumulation in pepper leaves after spray (NMR); settings: 1 g/l spray
Procedure: TMAO content in plants was determined by harvesting three leaves per treatment and freezing them in liquid nitrogen before the Nuclear Magnetic Resonance spectroscopy (NMR) determination. At least three independent plants were treated per experiment. TMAO content in plant extracts was quantified by NMR spectrometry using a Bruker Advance DRX 500 MHz spectrometer equipped with a 5 mm inverse triple resonance probe head. A known concentration of [3-(trimethylsilyl) propionic-2,2,3,3-d4 acid sod. salt, (TSP-d4)] was used as internal reference. All experiments were conducted at 298K and the data was acquired and processed using the same parameters. Spectra processing was performed on PC station using Topspin 2.0 software (Bruker).
‘Murano’ pepper seeds and ‘Bomi’ barley seeds were sown and grown as described above. Control plants (six weeks old) were sprayed with water and pepper treated plants were sprayed with 1 g/l of TMAO di-hydrate while barley plants were sprayed with 1 g/l of TMAO di-hydrate formulated with 0.1% of C8-C10 Alkylpolysaccharide. Leaves were harvested and TMAO was determined by NMR. The percentage of TMAO increase compared to untreated controls was determined for each time point.

C[N+](C)(C)[O-].O.O [TMAO di-hydrate, trimethylamine N-oxide di-hydrate]
Mean Fitness Value ± S.E. [1]: 1.83 ± 0.21 | TMAO % Control ([2]; 1 day post spray): 529% | TMAO (μM) in leaves ([2]; 1 day post spray): 1755.2 µM | TMAO % Control ([2]; 10 days post spray): 373% | TMAO (μM) in leaves ([2]; 10 days post spray): 1237.6 µM | TMAO % Control ([2]; 20 days post spray): 286% | TMAO (μM) in leaves ([2]; 20 days post spray): 948.9 µM | TMAO % Control ([2]; 30 days post spray): 135% | TMAO (μM) in leaves ([2]; 30 days post spray): 449.2 µM | TMAO % Control ([2]; 40 days post spray): 213% | TMAO (μM) in leaves ([2]; 40 days post spray): 709.4 µM
